Measurements published in patent publication US20090181898A1, “ABUSE-RESISTANT A[…]” (SHIRE LLC, priority 2002, published 2009).

Test system: anesthetized dog
Test: Cardiovascular effects following intravenous injection in the anesthetized dog

Substance: d-amphetamine
- MAP % Change (iv 0.202 mg/kg, Time 25): 31%
- MAP mean arterial pressure (iv 0.202 mg/kg, Time 25): 110 mmHg
- SAP % Change (iv 0.202 mg/kg, Time 25): 34%
- SAP systolic arterial pressure (iv 0.202 mg/kg, Time 25): 148 mmHg
- DAP % Change (iv 0.202 mg/kg, Time 30): 20%
- LVP % Change (iv 0.202 mg/kg, Time 30): 30%
- MAP % Change (iv 0.202 mg/kg, Time 30): 23%
- MAP mean arterial pressure (iv 0.202 mg/kg, Time 30): 103 mmHg
- SAP % Change (iv 0.202 mg/kg, Time 30): 26%
- SAP systolic arterial pressure (iv 0.202 mg/kg, Time 30): 140 mmHg
- DAP % Change (iv 0.404 mg/kg, Time 0): 0%
- LVP % Change (iv 0.404 mg/kg, Time 0): 0%
- MAP % Change (iv 0.404 mg/kg, Time 0): 0%
- MAP mean arterial pressure (iv 0.404 mg/kg, Time 0): 101 mmHg
- SAP % Change (iv 0.404 mg/kg, Time 0): 0%
- SAP systolic arterial pressure (iv 0.404 mg/kg, Time 0): 139 mmHg
- DAP % Change (iv 0.404 mg/kg, Time 5): 88%
- LVP % Change (iv 0.404 mg/kg, Time 5): 79%
- MAP % Change (iv 0.404 mg/kg, Time 5): 85%
- MAP mean arterial pressure (iv 0.404 mg/kg, Time 5): 187 mmHg
- SAP % Change (iv 0.404 mg/kg, Time 5): 73%
- SAP systolic arterial pressure (iv 0.404 mg/kg, Time 5): 240 mmHg
- DAP % Change (iv 0.404 mg/kg, Time 15): 44%
- LVP % Change (iv 0.404 mg/kg, Time 15): 43%
- MAP % Change (iv 0.404 mg/kg, Time 15): 43%
- MAP mean arterial pressure (iv 0.404 mg/kg, Time 15): 145 mmHg
- SAP % Change (iv 0.404 mg/kg, Time 15): 39%
- SAP systolic arterial pressure (iv 0.404 mg/kg, Time 15): 193 mmHg
- DAP % Change (iv 0.404 mg/kg, Time 25): 17%
- LVP % Change (iv 0.404 mg/kg, Time 25): 26%
- MAP % Change (iv 0.404 mg/kg, Time 25): 20%
- MAP mean arterial pressure (iv 0.404 mg/kg, Time 25): 122 mmHg
- SAP % Change (iv 0.404 mg/kg, Time 25): 19%
- SAP systolic arterial pressure (iv 0.404 mg/kg, Time 25): 166 mmHg
- DAP % Change (iv 0.404 mg/kg, Time 30): 11%
- LVP % Change (iv 0.404 mg/kg, Time 30): 22%
- MAP % Change (iv 0.404 mg/kg, Time 30): 16%
- MAP mean arterial pressure (iv 0.404 mg/kg, Time 30): 117 mmHg
- SAP % Change (iv 0.404 mg/kg, Time 30): 16%
- SAP systolic arterial pressure (iv 0.404 mg/kg, Time 30): 160 mmHg
- DAP % Change (iv 2.02 mg/kg, Time 0): 0%
- LVP % Change (iv 2.02 mg/kg, Time 0): 0%
- MAP % Change (iv 2.02 mg/kg, Time 0): 0%
- MAP mean arterial pressure (iv 2.02 mg/kg, Time 0): 115 mmHg
- SAP % Change (iv 2.02 mg/kg, Time 0): 0%
- SAP systolic arterial pressure (iv 2.02 mg/kg, Time 0): 158 mmHg
- DAP % Change (iv 2.02 mg/kg, Time 5): 48%
- LVP % Change (iv 2.02 mg/kg, Time 5): 40%
- MAP % Change (iv 2.02 mg/kg, Time 5): 47%
- MAP mean arterial pressure (iv 2.02 mg/kg, Time 5): 169 mmHg
- SAP % Change (iv 2.02 mg/kg, Time 5): 44%
- SAP systolic arterial pressure (iv 2.02 mg/kg, Time 5): 228 mmHg
- DAP % Change (iv 2.02 mg/kg, Time 15): 23%
- LVP % Change (iv 2.02 mg/kg, Time 15): 24%
- MAP % Change (iv 2.02 mg/kg, Time 15): 23%
- MAP mean arterial pressure (iv 2.02 mg/kg, Time 15): 142 mmHg
- SAP % Change (iv 2.02 mg/kg, Time 15): 24%
- SAP systolic arterial pressure (iv 2.02 mg/kg, Time 15): 196 mmHg
- DAP % Change (iv 2.02 mg/kg, Time 25): 17%
- LVP % Change (iv 2.02 mg/kg, Time 25): 19%
- MAP % Change (iv 2.02 mg/kg, Time 25): 17%
- MAP mean arterial pressure (iv 2.02 mg/kg, Time 25): 135 mmHg
- SAP % Change (iv 2.02 mg/kg, Time 25): 20%
- SAP systolic arterial pressure (iv 2.02 mg/kg, Time 25): 189 mmHg
- DAP % Change (iv 2.02 mg/kg, Time 30): 13%
- LVP % Change (iv 2.02 mg/kg, Time 30): 16%
- MAP % Change (iv 2.02 mg/kg, Time 30): 12%
- MAP mean arterial pressure (iv 2.02 mg/kg, Time 30): 129 mmHg
- SAP % Change (iv 2.02 mg/kg, Time 30): 16%
- SAP systolic arterial pressure (iv 2.02 mg/kg, Time 30): 183 mmHg
